Results from the NIST ThermoML archive (doi:10.1021/je0501843).
Where “and” joins values, the source holds several entries; their conditions need not be identical. Equal entries are not always repeated.

Assay: molar heat capacity at constant volume
Details: Fluid (supercritical or subcritical phases), Vacuum adiabatic calorimetry

FC(F)C(F)(F)F [pentafluoroethane]
Details	molar heat capacity at constant volume
391 K, Mass density=403.1 kg/m3	115.12 J/K/mol
391 K, Mass density=502.4 kg/m3	111.21 J/K/mol
391 K, Mass density=584.7 kg/m3	113.95 J/K/mol
391 K, Mass density=687.1 kg/m3	114.69 J/K/mol
391 K, Mass density=772 kg/m3	114.4 J/K/mol
391 K, Mass density=880.2 kg/m3	113.13 J/K/mol
391 K, Mass density=971.8 kg/m3	113.73 J/K/mol and 111.12 J/K/mol
392 K, Mass density=403.1 kg/m3	113.94 J/K/mol
392 K, Mass density=502.4 kg/m3	111.32 J/K/mol
392 K, Mass density=584.7 kg/m3	113.44 J/K/mol
392 K, Mass density=687.1 kg/m3	113.17 J/K/mol
392 K, Mass density=772 kg/m3	112.45 J/K/mol
392 K, Mass density=880.1 kg/m3	111.39 J/K/mol
392 K, Mass density=971.7 kg/m3	108.99 J/K/mol and 110.55 J/K/mol
393 K, Mass density=403.1 kg/m3	113.84 J/K/mol
393 K, Mass density=502.3 kg/m3	114.93 J/K/mol
393 K, Mass density=584.7 kg/m3	112.26 J/K/mol
393 K, Mass density=687 kg/m3	114.98 J/K/mol
393 K, Mass density=771.9 kg/m3	113.77 J/K/mol
393 K, Mass density=880 kg/m3	112.82 J/K/mol
393 K, Mass density=971.6 kg/m3	109.6 J/K/mol and 110.84 J/K/mol
394 K, Mass density=403.1 kg/m3	113.19 J/K/mol
394 K, Mass density=502.3 kg/m3	113.53 J/K/mol
394 K, Mass density=584.6 kg/m3	113.56 J/K/mol
394 K, Mass density=687 kg/m3	116.48 J/K/mol
394 K, Mass density=771.9 kg/m3	114.28 J/K/mol
394 K, Mass density=880 kg/m3	113.31 J/K/mol
394 K, Mass density=971.6 kg/m3	113.46 J/K/mol and 112.41 J/K/mol
395 K, Mass density=403 kg/m3	112.66 J/K/mol
395 K, Mass density=502.3 kg/m3	112.95 J/K/mol
395 K, Mass density=584.6 kg/m3	114.13 J/K/mol
395 K, Mass density=687 kg/m3	114.63 J/K/mol
395 K, Mass density=771.8 kg/m3	113.37 J/K/mol
395 K, Mass density=879.9 kg/m3	112.11 J/K/mol
395 K, Mass density=971.5 kg/m3	112.76 J/K/mol and 111.6 J/K/mol
396 K, Mass density=403 kg/m3	114.19 J/K/mol
396 K, Mass density=502.3 kg/m3	115.6 J/K/mol
396 K, Mass density=584.6 kg/m3	113.53 J/K/mol
396 K, Mass density=686.9 kg/m3	113.17 J/K/mol
396 K, Mass density=771.8 kg/m3	113.35 J/K/mol
396 K, Mass density=879.9 kg/m3	112.93 J/K/mol
396 K, Mass density=971.4 kg/m3	112.77 J/K/mol and 110.2 J/K/mol
397 K, Mass density=403 kg/m3	115.11 J/K/mol
397 K, Mass density=502.2 kg/m3	113.37 J/K/mol
397 K, Mass density=584.5 kg/m3	112.42 J/K/mol
397 K, Mass density=686.9 kg/m3	113.72 J/K/mol
397 K, Mass density=771.7 kg/m3	113.23 J/K/mol
397 K, Mass density=879.8 kg/m3	113.97 J/K/mol
397 K, Mass density=971.3 kg/m3	112.64 J/K/mol and 111.54 J/K/mol
398 K, Mass density=403 kg/m3	115.94 J/K/mol
398 K, Mass density=502.2 kg/m3	111.91 J/K/mol
398 K, Mass density=584.5 kg/m3	113.66 J/K/mol
398 K, Mass density=686.8 kg/m3	116.24 J/K/mol
398 K, Mass density=771.7 kg/m3	114.52 J/K/mol
398 K, Mass density=879.7 kg/m3	113.6 J/K/mol
398 K, Mass density=971.3 kg/m3	113.46 J/K/mol and 112.92 J/K/mol
399 K, Mass density=502.2 kg/m3	114.43 J/K/mol
399 K, Mass density=584.5 kg/m3	115.44 J/K/mol
399 K, Mass density=686.8 kg/m3	115.5 J/K/mol
399 K, Mass density=771.6 kg/m3	114.85 J/K/mol
399 K, Mass density=879.7 kg/m3	112.05 J/K/mol
399 K, Mass density=971.2 kg/m3	112.08 J/K/mol
